Laboratory results reported in PubChem BioAssay AID330 (DTP/NCI, 2004).
Where “and” joins values, the source holds several entries; their conditions need not be identical. Equal entries are not always repeated. Inconclusive results and toxic doses are left out. Peptide text beside a SMILES is read from it. * marks the point of attachment. Trt = c1ccc(C(c2ccccc2)(c2ccccc2)*)cc1; Cbz = O=C(OCc1ccccc1)*

System: P388 leukemia ip, CD2F1 mice, survival T/C
Assay: NCI In Vivo Anticancer Drug Screen. Data for tumor model P388 Leukemia (intraperitoneal) in CD2F1 (CDF1) mice
Settings: endpoint: median survival time, higher = longer survival
Summary of the method: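 Mice carrying the transplanted tumor received test compound or vehicle. Survival was recorded in each group, and the value is the treated-group measurement divided by that of the vehicle-treated control group.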

[1] = dose: 50.0 mg/kg/injection, schedule: Q01DX005 (ip), vehicle: saline with Tween-80
[2] = dose: 100.0 mg/kg/injection, schedule: Q01DX005 (ip), vehicle: saline with Tween-80
[3] = dose: 200.0 mg/kg/injection, schedule: Q01DX005 (ip), vehicle: saline with Tween-80
[4] = dose: 100.0 mg/kg/injection, schedule: Q01DX009 (ip), vehicle: saline with Tween-80
[5] = dose: 200.0 mg/kg/injection, schedule: Q01DX009 (ip), vehicle: saline with Tween-80
[6] = dose: 400.0 mg/kg/injection, schedule: Q01DX009 (ip), vehicle: saline with Tween-80
[7] = dose: 12.5 mg/kg/injection, schedule: Q01DX009 (ip), vehicle: saline
[8] = dose: 25.0 mg/kg/injection, schedule: Q01DX009 (ip), vehicle: saline
[9] = dose: 50.0 mg/kg/injection, schedule: Q01DX009 (ip), vehicle: saline
[10] = dose: 50.0 mg/kg/injection, schedule: Q01DX009 (ip), vehicle: saline with Tween-80
[11] = dose: 50.0 mg/kg/injection, schedule: Q04DX003 (ip), vehicle: saline with Tween-80
[12] = dose: 100.0 mg/kg/injection, schedule: Q04DX003 (ip), vehicle: saline with Tween-80
[13] = dose: 100.0 mg/kg/injection, schedule: Q01DX009 (ip), vehicle: saline
[14] = dose: 200.0 mg/kg/injection, schedule: Q01DX009 (ip), vehicle: saline
[15] = dose: 12.5 mg/kg/injection, schedule: Q01DX009 (ip), vehicle: Klucel (hydroxypropylcellulose) (HPC)
[16] = dose: 25.0 mg/kg/injection, schedule: Q01DX009 (ip), vehicle: Klucel (hydroxypropylcellulose) (HPC)
[17] = dose: 50.0 mg/kg/injection, schedule: Q01DX009 (ip), vehicle: Klucel (hydroxypropylcellulose) (HPC)
[18] = dose: 200.0 mg/kg/injection, schedule: Q01DX009 (ip), vehicle: Klucel (hydroxypropylcellulose) (HPC)
[19] = dose: 200.0 mg/kg/injection, schedule: Q04DX003 (ip), vehicle: saline with Tween-80
[20] = dose: 400.0 mg/kg/injection, schedule: Q04DX003 (ip), vehicle: saline with Tween-80
[21] = dose: 60.0 mg/kg/injection, schedule: Q01DX005 (ip), vehicle: saline
[22] = dose: 120.0 mg/kg/injection, schedule: Q01DX005 (ip), vehicle: saline
[23] = dose: 240.0 mg/kg/injection, schedule: Q01DX005 (ip), vehicle: saline
[24] = dose: 120.0 mg/kg/injection, schedule: Q01DX005 (ip), vehicle: saline with Tween-80
[25] = dose: 240.0 mg/kg/injection, schedule: Q01DX005 (ip), vehicle: saline with Tween-80

COc1cccc2c1C(=O)c1c(O)c3c(c(O)c1C2=O)CC(O)(C(C)=O)CC3OC1CC(NCC2(O)OCC(O)C(O)C2O)C(O)C(C)O1 (configuration not stated)
T/C (dose: 3.13 mg/kg/injection, schedule: Q04DX003 (ip), vehicle: water): 119 % of control
T/C (dose: 6.25 mg/kg/injection, schedule: Q04DX003 (ip), vehicle: water): 117 % of control
T/C (dose: 12.5 mg/kg/injection, schedule: Q04DX003 (ip), vehicle: water): 119 % of control
T/C (dose: 25.0 mg/kg/injection, schedule: Q04DX003 (ip), vehicle: water): 118 % of control
T/C (dose: 200.0 mg/kg/injection, schedule: Q04DX003 (ip), vehicle: water): 99 % of control

COc1nc(Nc2ccccc2SC)nc(OC)n1
T/C [1]: 104 % of control
T/C [2]: 106 % of control
T/C [3]: 107 % of control

Nc1cc(Cl)c(N=Nc2ccccc2)c(N)n1
T/C [4]: 103 % of control
T/C [5]: 107 % of control
T/C [6]: 94 % of control

Cc1ccc(C(C)C)c(OCCN)c1
T/C (dose: 6.25 mg/kg/injection, schedule: Q01DX009 (ip), vehicle: saline): 112 % of control
T/C [7]: 110 % of control
T/C [8]: 107 % of control
T/C [9]: 94 % of control

ClCc1ccc(CCl)c(Cl)c1Cl
T/C (dose: 25.0 mg/kg/injection, schedule: Q01DX009 (ip), vehicle: saline with Tween-80): 100 % of control
T/C (dose: 25.0 mg/kg/injection, schedule: Q04DX003 (ip), vehicle: saline with Tween-80): 100 % of control
T/C [10]: 95 % of control
T/C [11]: 95 % of control
T/C [4]: 95 % of control
T/C [12]: 95 % of control

COCCC(=NC(C)(C)C)Nc1ccccc1Cl
T/C [9]: 114 % of control
T/C [13]: 113 % of control
T/C [14]: 102 % of control

CC([OH2+])CNCCN.CC([OH2+])CNCCN.[Ni+2].[O-][Cl+3]([O-])([O-])[O-] (configuration not stated)
T/C [7]: 111 % of control
T/C [8]: 100 % of control

O=c1c2ccccc2sc2c([N+](=O)[O-])ccc(NCCNCCO)c12
T/C [10]: 120 % of control and 123 % of control

CCC[CH2][Sn]1([CH2]CCC)[O]CC[S]1
T/C (dose: 3.12 mg/kg/injection, schedule: Q01DX009 (ip), vehicle: Klucel (hydroxypropylcellulose) (HPC)): 116 % of control

O=NN(CCCl)C(=O)Oc1ccc(F)cc1
T/C (dose: 3.12 mg/kg/injection, schedule: Q01DX001 (ip), vehicle: saline with Tween-80): 118 % of control
T/C (dose: 6.25 mg/kg/injection, schedule: Q01DX001 (ip), vehicle: saline with Tween-80): 116 % of control
T/C (dose: 50.0 mg/kg/injection, schedule: Q01DX001 (ip), vehicle: saline with Tween-80): 106 % of control

S=c1nn[nH]c2[nH]ncc12
T/C (dose: 100.0 mg/kg/injection, schedule: Q01DX001 (ip), vehicle: saline with Tween-80): 94 % of control
T/C (dose: 200.0 mg/kg/injection, schedule: Q01DX001 (ip), vehicle: saline with Tween-80): 102 % of control
T/C (dose: 400.0 mg/kg/injection, schedule: Q01DX001 (ip), vehicle: saline with Tween-80): 108 % of control

COC(=O)C(CSC(c1ccccc1)(c1ccccc1)c1ccccc1)NC(=O)C(CC(N)=O)NC(=O)OCc1ccccc1 (stereo not drawn) (Cbz-Asn-Cys(Trt)-OMe; configuration not given here)
T/C (dose: 12.5 mg/kg/injection, schedule: Q01DX009 (ip), vehicle: distilled water + Tween-80): 92 % of control
T/C (dose: 25.0 mg/kg/injection, schedule: Q01DX009 (ip), vehicle: distilled water + Tween-80): 97 % of control
T/C (dose: 50.0 mg/kg/injection, schedule: Q01DX009 (ip), vehicle: distilled water + Tween-80): 122 % of control and 94 % of control
T/C (dose: 200.0 mg/kg/injection, schedule: Q01DX009 (ip), vehicle: distilled water + Tween-80): 163 % of control

CC(C)(C)OCC(NC(=O)OC(C)(C)C)C(=O)O (configuration not stated)
T/C [1]: 100 % of control
T/C [2]: 103 % of control
T/C [3]: 97 % of control

CSc1nc2ccc(NC(C)=O)cc2s1
T/C [15]: 111 % of control
T/C [16]: 107 % of control
T/C [17]: 102 % of control and 87 % of control
T/C [18]: 90 % of control

CC(C)OC(CCCl)c1ccc(Cl)cc1 (configuration not stated)
T/C [12]: 109 % of control
T/C [19]: 100 % of control

CSc1ccc2c(NCCCCCCCCNc3c4ccccc4nc4cc(SC)ccc34)c3ccccc3nc2c1
T/C (dose: 0.63 mg/kg/injection, schedule: Q01DX009 (ip), vehicle: other): 117 % of control
T/C (dose: 1.25 mg/kg/injection, schedule: Q01DX009 (ip), vehicle: other): 119 % of control
T/C (dose: 2.5 mg/kg/injection, schedule: Q01DX009 (ip), vehicle: other): 123 % of control
T/C (dose: 10.0 mg/kg/injection, schedule: Q01DX009 (ip), vehicle: other): 122 % of control

CC(C)(CCC#N)C1NC(C(=O)O)CS1 (configuration not stated)
T/C [9]: 102 % of control
T/C [13]: 99 % of control
T/C [14]: 87 % of control

Nc1ccc(-c2ccc3ccccc3n2)cc1
T/C (dose: 3.13 mg/kg/injection, schedule: Q01DX009 (ip), vehicle: Klucel (hydroxypropylcellulose) (HPC)): 103 % of control
T/C (dose: 6.25 mg/kg/injection, schedule: Q01DX009 (ip), vehicle: Klucel (hydroxypropylcellulose) (HPC)): 101 % of control
T/C [15]: 106 % of control
T/C [16]: 88 % of control

Cc1ccc(C(F)(F)F)cc1N(O)C(C)(C)C
T/C [11]: 95 % of control
T/C [12]: 101 % of control
T/C [19]: 118 % of control

O=c1[nH]c(=S)[nH]c2nccnc12
T/C (dose: 100.0 mg/kg/injection, schedule: Q04DX003 (ip), vehicle: Klucel (hydroxypropylcellulose) (HPC)): 105 % of control
T/C (dose: 200.0 mg/kg/injection, schedule: Q04DX003 (ip), vehicle: Klucel (hydroxypropylcellulose) (HPC)): 118 % of control
T/C (dose: 400.0 mg/kg/injection, schedule: Q04DX003 (ip), vehicle: Klucel (hydroxypropylcellulose) (HPC)): 112 % of control

COC(=O)C(CC=C(C)C)C(C)=O (configuration not stated)
T/C (dose: 50.0 mg/kg/injection, schedule: Q01DX005 (ip), vehicle: saline): 101 % of control
T/C (dose: 100.0 mg/kg/injection, schedule: Q01DX005 (ip), vehicle: saline): 101 % of control
T/C (dose: 200.0 mg/kg/injection, schedule: Q01DX005 (ip), vehicle: saline): 105 % of control

[CH3][Sn]([CH2]c1ccccc1)([CH2]c1ccccc1)[c]1ccccc1
T/C [12]: 98 % of control
T/C [19]: 105 % of control
T/C [20]: 100 % of control

CC(=O)CC1(O)CCCC1
T/C [21]: 98 % of control
T/C [22]: 105 % of control
T/C [23]: 100 % of control

COC(=O)C(=O)c1ccccc1
T/C [10]: 107 % of control
T/C [4]: 101 % of control
T/C [5]: 99 % of control
T/C [6]: 99 % of control

NCCOCCN
T/C [21]: 100 % of control
T/C [22]: 101 % of control
T/C [23]: 95 % of control

CC(/C=N/N=C1\C(=O)Nc2ccccc21)=C\c1ccccc1
T/C [17]: 95 % of control
T/C (dose: 100.0 mg/kg/injection, schedule: Q01DX009 (ip), vehicle: Klucel (hydroxypropylcellulose) (HPC)): 94 % of control
T/C [18]: 100 % of control

O=C1c2cc(O)c(O)cc2O[C@H](c2ccc(O)c(O)c2)[C@H]1O
T/C [4]: 120 % of control
T/C [12]: 100 % of control
T/C [5]: 110 % of control
T/C [19]: 100 % of control
T/C [6]: 120 % of control
T/C [20]: 109 % of control

NNC(=O)C1CC2c3ccccc3C1c1ccccc12 (configuration not stated)
T/C (dose: 60.0 mg/kg/injection, schedule: Q01DX005 (ip), vehicle: saline with Tween-80): 101 % of control
T/C [24]: 99 % of control
T/C [25]: 97 % of control

COc1cccc(C(=O)CCN(C)C)c1
T/C [9]: 98 % of control and 106 % of control
T/C [13]: 99 % of control and 105 % of control

CC1=CC2N(C=C1)C(c1ccc(Cl)cc1)=NON2c1cc(C)ccn1 (configuration not stated)
T/C [1]: 92 % of control
T/C [2]: 86 % of control and 94 % of control
T/C [24]: 87 % of control
T/C [3]: 100 % of control
T/C [25]: 93 % of control

O=c1[nH]c2ccccc2c(=O)n1-c1ccccc1
T/C [4]: 101 % of control and 109 % of control
T/C [5]: 96 % of control
T/C [6]: 113 % of control and 95 % of control
